Measurements reported in ChEMBL document CHEMBL6127087 (Eur J Med Chem, 2024).
pIC50, pKd: −log10 of the molar value. The source made the active and inactive calls. The rule behind the calls is not given here.

Assays:
[1] = molecular target: P2Y purinoceptor 6 (Homo sapiens, UniProt Q15077); assay: Binding affinity to P2Y6R (unknown origin) assessed as dissociation constant by SPR analysis
[2] = molecular target: P2Y purinoceptor 1 (Homo sapiens) (UniProt P47900); assay: Antagonist activity at human P2Y1R stably expressed in HEK293 cells assessed as inhibition of ADP-induced IP3 accumulation preincubated with compound for 30 mins followed by ADP addition by ELISA; assay type: functional, cell-based
Chain of P2Y purinoceptor 1 (Homo sapiens) (P47900 whole entry): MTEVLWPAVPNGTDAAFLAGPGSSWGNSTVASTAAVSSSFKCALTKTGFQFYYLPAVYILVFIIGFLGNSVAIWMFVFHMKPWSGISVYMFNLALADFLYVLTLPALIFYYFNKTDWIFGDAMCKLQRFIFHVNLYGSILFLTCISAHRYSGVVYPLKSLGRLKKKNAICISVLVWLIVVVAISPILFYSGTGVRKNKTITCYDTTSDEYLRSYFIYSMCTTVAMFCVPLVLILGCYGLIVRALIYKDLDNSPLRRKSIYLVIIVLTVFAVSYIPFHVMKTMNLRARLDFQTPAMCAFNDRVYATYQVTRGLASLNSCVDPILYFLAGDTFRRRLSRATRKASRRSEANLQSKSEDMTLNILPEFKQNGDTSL

[3] = molecular target: T1, P2Y purinoceptor 14 (Homo sapiens) (UniProt Q15391); assay: Antagonist activity at human P2Y14R stably expressed in HEK293 cells assessed as inhibition of UDPG-induced cAMP accumulation preincubated with compound for 30 mins followed by UDPG addition by cAMP-GloTM assay; assay type: functional, cell-based
T1 sequence (whole entry): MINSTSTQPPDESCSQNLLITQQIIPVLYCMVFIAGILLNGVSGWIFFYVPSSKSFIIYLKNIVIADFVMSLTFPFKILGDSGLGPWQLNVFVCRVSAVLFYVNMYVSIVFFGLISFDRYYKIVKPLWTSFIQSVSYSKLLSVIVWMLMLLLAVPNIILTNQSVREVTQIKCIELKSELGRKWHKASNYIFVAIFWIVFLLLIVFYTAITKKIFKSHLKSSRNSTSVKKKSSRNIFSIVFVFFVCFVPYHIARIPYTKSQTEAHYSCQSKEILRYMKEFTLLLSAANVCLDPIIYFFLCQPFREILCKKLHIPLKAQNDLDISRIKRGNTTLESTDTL

[4] = molecular target: Voltage-gated inwardly rectifying potassium channel KCNH2 (Homo sapiens, UniProt Q12809); assay: Inhibition of human ERG by PatchXpress analysis; assay type: toxicity
Chain of Voltage-gated inwardly rectifying potassium channel KCNH2 (Q12809 whole entry): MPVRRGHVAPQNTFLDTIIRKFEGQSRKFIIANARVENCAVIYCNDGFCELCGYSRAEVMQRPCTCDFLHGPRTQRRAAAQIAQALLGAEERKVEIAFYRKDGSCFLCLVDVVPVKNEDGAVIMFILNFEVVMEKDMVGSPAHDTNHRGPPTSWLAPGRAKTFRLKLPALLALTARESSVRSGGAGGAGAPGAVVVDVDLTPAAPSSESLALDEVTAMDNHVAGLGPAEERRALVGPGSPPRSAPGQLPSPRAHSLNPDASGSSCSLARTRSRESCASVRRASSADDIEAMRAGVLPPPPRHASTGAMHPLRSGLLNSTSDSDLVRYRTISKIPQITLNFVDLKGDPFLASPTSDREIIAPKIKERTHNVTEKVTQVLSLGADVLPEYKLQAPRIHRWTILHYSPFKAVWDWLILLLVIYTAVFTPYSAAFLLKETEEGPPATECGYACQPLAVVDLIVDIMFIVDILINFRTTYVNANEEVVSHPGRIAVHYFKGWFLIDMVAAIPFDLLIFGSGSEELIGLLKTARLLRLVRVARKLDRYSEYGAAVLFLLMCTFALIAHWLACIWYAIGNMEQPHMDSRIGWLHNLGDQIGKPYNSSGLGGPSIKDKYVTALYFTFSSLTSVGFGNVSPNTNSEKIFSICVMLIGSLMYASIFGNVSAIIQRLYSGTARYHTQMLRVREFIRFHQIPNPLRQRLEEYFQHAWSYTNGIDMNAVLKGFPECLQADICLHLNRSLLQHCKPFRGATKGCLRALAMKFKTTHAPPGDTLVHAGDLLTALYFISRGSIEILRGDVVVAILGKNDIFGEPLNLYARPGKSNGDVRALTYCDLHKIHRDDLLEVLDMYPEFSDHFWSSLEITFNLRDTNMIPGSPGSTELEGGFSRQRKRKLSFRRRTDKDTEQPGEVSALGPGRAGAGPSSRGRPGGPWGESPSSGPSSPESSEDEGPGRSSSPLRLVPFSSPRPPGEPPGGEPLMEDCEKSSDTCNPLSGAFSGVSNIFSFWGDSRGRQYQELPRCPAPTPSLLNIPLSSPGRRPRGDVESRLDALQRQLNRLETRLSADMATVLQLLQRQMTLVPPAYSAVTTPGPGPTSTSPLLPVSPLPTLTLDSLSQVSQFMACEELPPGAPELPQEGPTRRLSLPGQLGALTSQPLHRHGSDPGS

[5] = Stability in simulated gastric fluid assessed as half-life; assay type: physicochemical
[6] = Metabolic stability in human liver microsomes assessed as intrinsic clearance preincubated for 10 mins followed by NADPH addition and measured upto 60 mins by LC-MS/MS analysis; assay type: ADME, Microsome; conditions: time < 70 min, read-out: CLH
[7] = Metabolic stability in human liver microsomes assessed as half-life preincubated for 10 mins followed by NADPH addition and measured upto 60 mins by LC-MS/MS analysis; assay type: ADME, Microsome; conditions: time < 70 min
[8] = Cmax in male Sprague-Dawley rat at 10 mg/kg, iv measured after 24 hrs by LC-MS/MS analysis; assay type: ADME, organism-based; conditions: male, Sprague-Dawley, in vivo, read-out: Cmax
[9] = AUC (0 to 24 hrs) in male Sprague-Dawley rat at 10 mg/kg, iv measured after 24 hrs by LC-MS/MS analysis; assay type: ADME, organism-based; conditions: in vivo
[10] = Cmax in male Sprague-Dawley rat at 20 mg/kg, po measured after 24 hrs by LC-MS/MS analysis; assay type: ADME, organism-based; conditions: male, Sprague-Dawley, in vivo, read-out: Cmax
[11] = Half-life in male Sprague-Dawley rat at 20 mg/kg, po measured after 24 hrs by LC-MS/MS analysis; assay type: ADME, organism-based; conditions: male, Sprague-Dawley, in vivo
[12] = AUC (0 to 24 hrs) in male Sprague-Dawley rat at 20 mg/kg, po measured after 24 hrs by LC-MS/MS analysis; assay type: ADME, organism-based; conditions: male, Sprague-Dawley, in vivo
[13] = Clearance in male Sprague-Dawley rat at 20 mg/kg, po measured after 24 hrs by LC-MS/MS analysis; assay type: ADME, organism-based; conditions: in vivo
[14] = system: Mus musculus; assay: Anti-inflammatory activity in LPS-induced male C57BL/6 mouse model of acute […] injury assessed as improvement in pulmonary edema by measuring reduction in wet to dry ratio of lung at 2 to 6 mg/kg, IG preadministered with compound for 7 days followed by LPS administration and measured after 24 hrs; assay type: functional, organism-based; conditions: dose 2-6 mg/kg, time 8.0 day
[15] = system: Mus musculus; assay: (§1) Anti-inflammatory activity in LPS-induced male C57BL/6 mouse model of acute […] injury assessed as reduction in IL-1beta level in BALF at 2 to 6 mg/kg, IG preadministered with compound for 7 days followed by LPS administration and measured after 24 hrs by ELISA; assay type: functional, organism-based; conditions: dose 2-6 mg/kg, time 8.0 day
[16] = system: Mus musculus; assay: as §1, with “infiltration of immune cells by measuring decrease” for “IL-1beta level”, “neutrophil count” for “BALF”, “hrs” for “hrs by ELISA”; assay type: functional, organism-based; conditions: dose 2-6 mg/kg, time 8.0 day
[17] = system: Mus musculus; assay: as §1, with “infiltration of immune cells by measuring decrease” for “IL-1beta level”, “lymphocytes count” for “BALF”, “hrs” for “hrs by ELISA”; assay type: functional, organism-based; conditions: dose 2-6 mg/kg, time 8.0 day
[18] = system: Mus musculus; assay: as §1, with “infiltration of immune cells by measuring decrease” for “IL-1beta level”, “monocytes count” for “BALF”, “hrs” for “hrs by ELISA”; assay type: functional, organism-based; conditions: dose 2-6 mg/kg, time 8.0 day
[19] = system: Mus musculus; assay: Anti-inflammatory activity in LPS-induced male C57BL/6 mouse model of acute […] injury assessed as reduction in MPO level in BALF at 2 to 6 mg/kg, IG preadministered with compound for 7 days followed by LPS administration and measured after 24 hrs by ELISA; assay type: functional, organism-based; conditions: dose 2-6 mg/kg, time 8.0 day
[20] = system: Mus musculus; assay: as §1, with “alveolar septa thickening” for “IL-1beta level”, “lung” for “BALF”, “H and E staining based histopathological analysis” for “ELISA”; assay type: functional, organism-based; conditions: dose 2-6 mg/kg, time 8.0 day
[21] = system: Mus musculus; assay: as §1, with “inflammatory infiltration” for “IL-1beta level”, “lung” for “BALF”, “H and E staining based histopathological analysis” for “ELISA”; assay type: functional, organism-based; conditions: dose 2-6 mg/kg, time 8.0 day
[22] = system: Mus musculus; assay: as §1, with “intact appearance of alveolar structure” for “reduction”, “lung” for “IL-1beta level in BALF”, “H and E staining based histopathological analysis” for “ELISA”; assay type: functional, organism-based; conditions: dose 2-6 mg/kg, time 8.0 day
[23] = system: Mus musculus; assay: Anti-inflammatory activity in LPS-induced male C57BL/6 mouse model of acute […] injury assessed as reduction in hyperemia of pulmonary alveolar septa in lung at 2 to 6 mg/kg, IG preadministered with compound for 7 days followed by LPS administration and measured after 24 hrs by H and E staining based histopathological analysis; assay type: functional, organism-based; conditions: dose 2-6 mg/kg, time 8.0 day
[24] = system: Mus musculus; assay: Anti-inflammatory activity in LPS-induced male C57BL/6 mouse model of acute […] injury assessed as reduction in lung permeability by measuring tight junction associated proteins at 2 to 6 mg/kg, IG preadministered with compound for 7 days followed by LPS administration and measured after 24 hrs by immunofluorescence analysis; assay type: functional, organism-based; conditions: dose 2-6 mg/kg, time 8.0 day
[25] = system: Mus musculus; assay: Anti-inflammatory activity in LPS-induced male C57BL/6 mouse model of acute […] injury assessed as reduction in infiltration of neutrophils into lung at 2 to 6 mg/kg, IG preadministered with compound for 7 days followed by LPS administration and measured after 24 hrs by immunofluorescence analysis; assay type: functional, organism-based; conditions: dose 2-6 mg/kg, time 8.0 day
[26] = system: Mus musculus; assay: Anti-inflammatory activity in LPS-induced male C57BL/6 mouse model of acute […] injury assessed as inhibition of CXCL1 mRNA expression at 2 to 6 mg/kg, IG preadministered with compound for 7 days followed by LPS administration and measured after 24 hrs by RT-PCR analysis; assay type: functional, organism-based; conditions: dose 2-6 mg/kg, time 8.0 day
[27] = system: Mus musculus; assay: Anti-inflammatory activity in LPS-induced male C57BL/6 mouse model of acute […] injury assessed as inhibition of CXCL9 mRNA expression at 2 to 6 mg/kg, IG preadministered with compound for 7 days followed by LPS administration and measured after 24 hrs by RT-PCR analysis; assay type: functional, organism-based; conditions: dose 2-6 mg/kg, time 8.0 day
[28] = system: Mus musculus; assay: Anti-inflammatory activity in LPS-induced male C57BL/6 mouse model of acute […] injury assessed as inhibition of CXCL10 mRNA expression at 2 to 6 mg/kg, IG preadministered with compound for 7 days followed by LPS administration and measured after 24 hrs by RT-PCR analysis; assay type: functional, organism-based; conditions: dose 2-6 mg/kg, time 8.0 day
[29] = system: Mus musculus; assay: Anti-inflammatory activity in LPS-induced male C57BL/6 mouse model of acute […] injury assessed as inhibition of CCL2 release at 2 to 6 mg/kg, IG preadministered with compound for 7 days followed by LPS administration and measured after 24 hrs by ELISA; assay type: functional, organism-based; conditions: dose 2-6 mg/kg, time 8.0 day

Chain of P2Y purinoceptor 6 (Q15077 whole entry): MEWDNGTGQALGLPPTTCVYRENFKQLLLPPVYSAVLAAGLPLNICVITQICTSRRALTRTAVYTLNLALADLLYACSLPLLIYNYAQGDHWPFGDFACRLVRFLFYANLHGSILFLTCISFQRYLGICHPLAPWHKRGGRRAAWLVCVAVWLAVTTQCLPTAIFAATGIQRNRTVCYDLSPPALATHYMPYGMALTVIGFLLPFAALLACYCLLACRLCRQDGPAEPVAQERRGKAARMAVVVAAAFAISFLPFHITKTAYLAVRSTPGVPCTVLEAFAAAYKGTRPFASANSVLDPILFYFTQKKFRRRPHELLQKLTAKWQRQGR

O=C(O)CCC(=O)N1N=C(c2ccc[nH]2)CC1c1cnc2ccccc2c1 (centres undefined)
pKd [1]: 5.85 | Activity [2]: inactive | Activity [3]: inactive | pIC50 [4]: < 4.30 | half-life [5]: > 50 h | microsomal CLint [6]: 18.6 µL/min/mg | half-life [7]: 3.55 h | Cmax [8]: 1410 ng/mL | AUC [9]: 1956 ng·h/mL | Cmax [10]: 2940 ng/mL | half-life [11]: 5.2 h | AUC(0-t) at 24 h [12]: 2980 ng·h/mL | CL/F [13]: 28.3 mL/min/kg | Activity [14]: Active | Activity [15]: Active | Activity [16]: Active | Activity [17]: Active | Activity [18]: Active | Activity [19]: Active | Activity [20]: Active | Activity [21]: Active | Activity [22]: Active | Activity [23]: Active | Activity [24]: Active | Activity [25]: Active | Activity [26]: Active | Activity [27]: Active | Activity [28]: Active | Activity [29]: Active
